Measurements published in patent US9969763B2, “1,2,3-triazole-tethered carbohydrate-di and tri lipidated cysteine conjugates useful as vaccine adjuvants and process for preparation thereof” (Council of Scientific and Industrial Research, priority 2015, dated 2018).
Where a SMILES comes first, the peptide text is derived from it. The star is where a group is joined. X1 = CCCCCCCCCCCCCCCC(=O)OCC(C*)OC(=O)CCCCCCCCCCCCCCC; Palmitoyl = CCCCCCCCCCCCCCCC(=O)*

Key:
[1] = tested on: cytokines IL-2, IL-12, IFN-γ, TNF-α, IL-10, IL-6; experiment: Cytokine expression on immunization with OVA (ELISA); assay type: in vivo, BALB/c mice; details: OVA antigen
Experimental: (§1) 13.1 Preparation and immunization of the vaccine: Male BALB/c mice (Procured from laboratory animal facility of National Institute of Nutrition, Hyderabad, IAEC No. IICT/Bio/fox/PG/1/02/2013) were immunized subcutaneously with different groups according to various concentrations of conjugates covered in examples 1-12, preferably 2 to 80 μg/dose, more preferably 6 to 50 μg/dose, most preferably 8 to 40 μg/dose, along with PBS (car no. TS1006, Himedia)and antigen control. A booster dose was given on 14th day and sacrificed 2 weeks after booster.
(§2) 1.2.2 Cytokine expression on immunization: ELISA was carried out by Opti Elisa Kit (cat no. 560485, BD biosciences, USA). Briefly, 96-Well plates were coated with capture antibody dissolved in coating buffer. Wells were blocked with PBS containing 0.05% Tween-20 for 1h at RT. After blocking, 100 μL/well of supernatant was added and incubated for overnight at 4° C. After washing, biotinylated secondary antibody was added along with enzyme. Plates were incubated for 1h at RT. Then plates were washed and substrate solution was added. The reaction was stopped and the absorbance was measured at 450 nm in ELISA reader (BioTek-Elx800).

[2] = tested on: rat RBCs; assay type: cell-based; details: red cells of rat
Experimental: 2.2.7 Hemolytic assay: Different concentration of test compounds were tested with fixed volume concentration of rat RBCs. After incubation for 30 min the percentage of hemolysis was determined by comparing the absorbance (k=540 nm) of the supernatant with that of distilled water as positive control.

[3] = biological target: T1, Human TLR-2 (Homo sapiens, UniProt O60603); experiment: Human TLR-2 reporter gene assay (NF-κB induction, SEAP); assay type: cell-based; details: HEK-Blue hTLR2 cells, 24 h
T1 construct: host or cells: HEK-Blue hTLR2 cells (HEK293-derived reporter line)
T1 sequence (O60603 21-784): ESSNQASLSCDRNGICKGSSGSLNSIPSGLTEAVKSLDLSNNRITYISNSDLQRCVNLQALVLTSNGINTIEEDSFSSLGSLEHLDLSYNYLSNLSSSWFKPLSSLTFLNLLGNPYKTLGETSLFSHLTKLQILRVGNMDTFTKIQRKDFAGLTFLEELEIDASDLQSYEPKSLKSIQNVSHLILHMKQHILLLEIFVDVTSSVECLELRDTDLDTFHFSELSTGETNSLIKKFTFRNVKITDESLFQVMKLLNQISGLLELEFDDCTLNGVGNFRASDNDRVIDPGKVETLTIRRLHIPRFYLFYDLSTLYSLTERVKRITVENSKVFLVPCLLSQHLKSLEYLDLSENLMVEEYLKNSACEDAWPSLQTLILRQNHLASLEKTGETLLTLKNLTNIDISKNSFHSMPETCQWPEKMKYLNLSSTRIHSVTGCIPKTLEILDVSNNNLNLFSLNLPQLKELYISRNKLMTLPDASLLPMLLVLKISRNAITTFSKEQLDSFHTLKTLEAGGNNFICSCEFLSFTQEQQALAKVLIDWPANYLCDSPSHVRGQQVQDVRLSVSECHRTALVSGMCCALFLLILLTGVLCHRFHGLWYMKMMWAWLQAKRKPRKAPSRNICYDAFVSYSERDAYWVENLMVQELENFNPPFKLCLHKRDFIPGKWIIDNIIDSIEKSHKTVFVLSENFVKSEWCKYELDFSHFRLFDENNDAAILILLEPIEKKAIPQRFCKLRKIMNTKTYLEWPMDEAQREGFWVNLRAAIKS
Experimental: 2.2.4 Human TLR-2 reporter gene assays (NF-κB induction): The assay was performed as per the manufacturer's instructions. HEK-Blue™ hTLR2 cells (cat no. hkb-htlr2, Invivogen, USA, 25,000 cells per well) were harvested in HEK-Blue™ selection medium containing normocin treated with the compounds and the plate were incubated at 37° C. in 5% CO2 for 24 h. SEAP (secreted embryonic alkaline phosphatase) can be observed with naked eye and determined using a spectrophotometer at 620-655 nm.

[4] = tested on: Splenocytes; experiment: OVA stimulated splenocyte proliferation (MTT) in immunized mice; assay type: in vivo, BALB/c mice; details: OVA antigen; mice immunized s.c., conjugates 2-80 μg, booster 14th day; MTT after 48 h
Experimental: as §1
(§3) 1.2.1 Proliferation of immune cells: Splenocytes were seeded into 96 well flat bottom microtiter plates having 1×10^5 cells/well in complete RPMI-1640 medium (cat no. AT028-1L, Himedia). Plates were incubated at 37° C., with 5% CO2 incubator. After 48 h of incubation 20 μl of Triazolyl blue Tetrazolium Bromide (MTT) (cat no. M2128, Sigma-Aldrich. St. Louis, Mo.) solution (5 mg/mL) was added to each well, incubated for next 4 h. Untransformed MTT was removed from each well by aspirating the supernatant (180 μL)and replaced with DMSO (Sigma-Aldrich, St. Louis, Mo.). The absorbance was read at 630 nm after 15 min.
All triazolyl adjuvant conjugates induced splenocyte proliferation responses at the dose of 2-80 μg.

[5] = tested on: Splenocytes; experiment: HBsAg stimulated splenocyte proliferation in immunized mice; assay type: in vivo, BALB/c mice; details: HBsAg antigen; conjugates 2-80 μg
Experimental: as §3
Vaccine was formulated with Hepatitis B antigen (HBsAg, cat. No HBS-870-c, ProspecBio, Israel))alone or with various adjuvants like Pam3CSK4 and their analogues. The adjuvanticity induced by each of the vaccine is determined by antibody titre, cytokine production and proliferation of immune cells.
(§4) Male BALB/c mice were immunized with different groups according to various concentrations of (conjugates)preferably 2 to 80 μg/dose, more preferably 6 to 50 μg/dose, most preferably 8 to 40 μg/dose, along with PBS and HBsAg antigen control. A booster dose was given on 14th day and sacrificed 2 weeks after booster.
2.2.1 Proliferation of immune cells: Splenocyte proliferation was measured by the same method as described in Example 13 except that HBsAg antigen. […]

[6] = tested on: OVA antigen; experiment: Antibody titre against OVA antigen and isotypes (ELISA); assay type: in vivo, BALB/c mice; details: 28th day; for IgG titer: serum anti-OVA; for IgG1 titer / IgG 2a titer: serum, OVA immunized mice
Experimental: as §1
(§5) 1.2.2 Antibody titre against OVA antigen: From the immunized mice retro-orbital sampling or retro-orbital blood was collected on 14th and 28th day before sacrifice. Serum was separated by centrifugation at 12,500 rpm for 5 min. Transferred to a clean centrifuge tube and store at −80 until used. The plates were coated with OVA (1 μg/well) in carbonate buffer. Plates were incubated at 4° C., overnight. They were then washed 3 times with PBS/Tween, and non-specific binding sites were blocked by adding 200 μl of blocking solution. Plates were incubated at room temperature for 1 h. Then 3 times wash is done, diluted standards and samples to desired concentrations in blocking solution were added to the plates. Incubate at 37° C. for 1 h or at 4° C., overnight. Plates were washed 3 times with PBS/Tween. Avidin-Horseradish Peroxidase (Av-HRP, cat no. 45210, Biolegend, USA) was diluted and added. Incubated at room temperature for 30 min. Plates were washed 3 times with PBS/Tween. Substrate was added, mix equal volumes of TMB Reagent A and B(cat no. 421101, Biolegend, USA) immediately prior to use. Plates were incubated at room temperature (4-30 min) for color development. Color reaction was stopped by adding 50 μl of stop solution. Optical density (OD) was read at 450 nm.
(§6) 1.2.3 Isotypes of antigen specific antibody: The plates were coated with diluted unlabeled capture antibody to a final concentration of 0.5-8 μg/ml. Plates were incubated at 4° C. overnight. They were then washed 3 times with PBS/Tween, and non-specific binding sites were blocked by adding 200 μl of blocking solution. Plates were incubated at room temperature for 1 h. Washing is done thrice, diluted standards and samples to desire concentrations in blocking solution were added to the plates. Incubate at room temperature for 2-4 h or at 4° C., overnight. Plates were washed 3 times with PBS/Tween. Detection antibodies were added 0.25-2 μg/ml in blocking buffer, followed by incubation at room temperature for 1 h. Plates were washed 3 times with PBS/Tween. Avidin-Horseradish Peroxidase (Av-HRP) was diluted and added. Incubated at room temperature for 30 min. Plates were washed 5 times with PBS/Tween. Substrate was added, mix equal volumes of TMB Reagent A and B immediately prior to use. Plates were incubated at room temperature (0.4-30 min) for color development. Color reaction was stopped by adding 50 μl of stop solution. Optical density (OD) was read at 450 nm.
IgG1 and IgG2a were measured by sandwich ELISA.

[7] = tested on: extracellular markers CD4, CD8, CD80, CD86, CD40; experiment: Immunophenotyping, staining for extracellular markers (flow cytometry); assay type: cell-based
Experimental: 2.2.5 Immunophenotyping—Staining for extracellular markers: Staining was as per the manufacturer's protocol and run on a BD FACSVerse flow cytometer (cat nos. 557596, 553047, 560016 and 553723; BD Biosciences, USA). Compensation was established using BD Biosciences compensation beads. Post acquisition flow cytometry analysis was performed using FACS Suite software and data were represent in the mean fluorescence intensity values.

[8] = tested on: cytokines IL-2, IL-12, IFN-γ, TNF-α, IL-10, IL-6; experiment: Cytokine expression on immunization with HBsAg (ELISA); assay type: in vivo, BALB/c mice; details: HBsAg antigen
Experimental: as §2, §4
2.2.2 Cytokine expression on immunization: Cytokine expression was measured by the same method as described in the Example 13 except that HBsAg antigen.

[9] = tested on: HBsAg antigen; experiment: Antibody titre against HBsAg antigen (ELISA); assay type: in vivo, BALB/c mice; details: 28th day; for IgG titer: serum anti-HBsAg; for IgG1 titer / IgG 2a titer: serum, HBsAg immunized mice
Experimental: as §5, §6, §4
2.2.3 Antibody titre against HBsAg antigen: Antibody titer was determined by the same method as described in the Example 13 except that HBsAg antigen.
Antibody titres IgG, IgG1 and IgG2a were measured by sandwich ELISA.

[10] = in vitro; assay type: cell-based; details: rat, NRK-49F rat kidney cells
Experimental: 2.2.6 In vitro cytotoxicity evaluation by MTT assay: Rat kidney cell line NRK-49F (NCCS, Pune) was exposed to varying doses of test compounds in the range of […], to determine the toxicity after 48 h of incubation. The colorimetric MTT assay was used to evaluate cell viability which is determined based on reduction of MTT to blue formazan crystals by the mitochondrial succinate dehydrogenase enzymes of viable cells.

CCCCCCCCCCCCCCCC(=O)N[C@@H](CSCC(COC(=O)CCCCCCCCCCCCCCC)OC(=O)CCCCCCCCCCCCCCC)C(=O)N[C@@H](CO)C(=O)N[C@@H](CCCCN)C(=O)N[C@@H](CCCCN)C(=O)N[C@@H](CCCCN)C(=O)N[C@@H](CCCCN)C(=O)O (stereo partly shown) [Standard (VacciGrade Pam3Cys) control] (Palmitoyl-C(X1)SKKKK-OH; N-terminus and C-terminus assumed)
Serum cytokines IFN-γ [1]: 100 to 140 pg/mL
Serum cytokines IL-2 [1]: 100 to 150 pg/mL
Serum cytokines IL-6 [1]: 100 to 120 pg/mL
Serum cytokines IL-10 [1]: 180 to 220 pg/mL
Serum cytokines IL-12 [1]: 80 to 140 pg/mL
Serum cytokines TNF-α [1]: 150 to 200 pg/mL
% Hemolysis [2]: 2-5%
TLR Ligand activity, SEAP Absorbance (655 nm) [3]: 1.2-2
Splenocyte proliferation [4]: 200-350
Splenocyte proliferation [5]: 250-500
IgG titer [6]: 102400-819200
IgG1 titer [6]: 102400-1638400
IgG 2a titer [6]: 102400-3276800
Immunophenotyping (MFI) CD4 [7]: 1400-3000 MFI
Immunophenotyping (MFI) CD8 [7]: 2000-4000 MFI
Immunophenotyping (MFI) CD40 [7]: 1000-2500 MFI
Immunophenotyping (MFI) CD80 [7]: 1600-2500 MFI
Immunophenotyping (MFI) CD86 [7]: 1200-2000 MFI
Serum cytokines IFN-γ [8]: 250 to 325 pg/mL
Serum cytokines IL-2 [8]: 250 to 300 pg/mL
Serum cytokines IL-6 [8]: 250 to 295 pg/mL
Serum cytokines IL-10 [8]: 325 to 475 pg/mL
Serum cytokines IL-12 [8]: 150 to 250 pg/mL
Serum cytokines TNF-α [8]: 275 to 400 pg/mL
IgG titer [9]: 204800-819200
IgG1 titer [9]: 102400-409600
IgG 2a titer [9]: 204800-3276800
viability at 48 h [10]: 95 to 100%

B1: OVA control: experimental weak antigen ovalbumin (cat no. A5503, Sigma-Aldrich) given alone as antigen control (protein, UniProt P01012 2-386, looked up)
Ovalbumin: GSIGAASMEFCFDVFKELKVHHANENIFYCPIAIMSALAMVYLGAKDSTRTQINKVVRFDKLPGFGDSIEAQCGTSVNVHSSLRDILNQITKPNDVYSFSLASRLYAEERYPILPEYLQCVKELYRGGLEPINFQTAADQARELINSWVESQTNGIIRNVLQPSSVDSQTAMVLVNAIVFKGLWEKAFKDEDTQAMPFRVTEQESKPVQMMYQIGLFRVASMASEKMKILELPFASGTMSMLVLLPDEVSGLEQLESIINFEKLTEWTSSNVMEERKIKVYLPRMKMEEKYNLTSVLMAMGITDVFSSSANLSGISSAESLKISQAVHAAHAEINEAGREVVGSAEAGVDAASVSEEFRADHPFLFCIKHIATNAVLFFGRCVSP
IgG titer [6]: 6400-12800
IgG1 titer [6]: 6400-25600
IgG 2a titer [6]: 6400-12800
IgG titer [9]: 12800-51200
IgG1 titer [9]: 12800-102400
IgG 2a titer [9]: 12800-51200
